Laboratory results as given in US9506013B2 (priority 2010, dated 2016).
Several values for one entry are separate records, joined by “and”; a condition that tells them apart may be missing. Equal values may be shown once.

Experiments:
[1] = type: physicochemical
Pseudomonas aeruginosa = type: cell-based
[2] = system: Pseudomonas aeruginosa and Staphylococcus aureas; type: cell-based
Staphylococcus aureas = type: cell-based

Compound | Adjuvant 1 h, emulsion stability, mL separation [mL] | Anionic 1 h, emulsion stability, mL separation [mL] | Nonionic 1 h, emulsion stability, mL separation [mL] | Adjuvant 24 h, emulsion stability, mL separation [mL] | Anionic 24 h, emulsion stability, mL separation [mL] | Nonionic 24 h, emulsion stability, mL separation [mL] | % Separation 1 h [1] | % Separation 24 h [1] | % Kill, 400 ppm (Pseudomonas aeruginosa) [%] | % Kill, DI water (Pseudomonas aeruginosa) [%] | Overall Rating [2] | % Kill, 400 ppm (Staphylococcus aureas) [%] | % Kill, DI water (Staphylococcus aureas) [%]
CCC(CCCCCCCCC(=O)OCCOC)S(=O)(=O)[O-].[Na+] (centres unmarked) [C12-33, C12 eFAME Sulfonate] | 0 | 0 | 0.25 | 0 | 0 | 0.25 | 3.2 C and 3.9 C | 4 C and 4.1 C |  |  |  |  | 
COCCOC(=O)CCCCCCCCC(CCCCCCCC(=O)OCCOC)S(=O)(=O)[O-].[Na+] (centres unmarked) [Mix-61, C18 eFAME Sulfonate] |  |  |  |  |  |  | 3.8 C and 3.7 C | 4 C and 3.9 C |  |  |  |  | 
C10 6EO eFAME [C10-9] |  |  |  |  |  |  |  |  | 29.1 | 37.2 | good | 23.4 | 38.4
C10 24EO eFAME Sulfonate [C10-30] | 0 | 0 | 0.25 | 0 | 0 | 0.25 | 3.8 C and 2.8 C | 4 C and 3 C |  |  |  |  | 
C10 24EO eFAME [C10-11] |  |  |  |  |  |  |  |  | 21.3 | 28.9 | good | 30.9 | 42.5
C12 6EO eFAME Sulfonate [C12-10] | 0 | 0 |  | 0 | 0 | 0.25 | 4 C and 3.8 C | 4.1 C and 4 C |  |  |  |  | 
C12 6EO eFAME [C12-9] |  |  |  |  |  |  |  |  | 23.2 | 32.6 | good | 3.2 | 36.2
C12 27EO eFAME Sulfonate [C12-32] | 0 | 0 | 0.5 | 0 | 0 | 0.5 | 3 C and 2.9 C | 3.2 C |  |  |  |  | 
C12 27EO eFAME [C12-11] |  |  |  |  |  |  |  |  | 30.1 | 34.9 | good | 36.2 | 42.7
